Here are results for 23 compounds from patent US20240182431A1, “NEW CONTRAST AGENT FOR USE IN MAGNETIC RESONANCE IMAGING” (Bayer Aktiengesellschaft, priority 2021, published 2024).

SMILES strings stand for the structures.

The data set in a line: Partition coefficient (logP butanol/buffer). In kind it is physicochemical. As to conditions: 1-butanol / 50 mM Tris-HCl, pH 7.4, room temperature.
Turning to `CCOCCOCCOc1ccc(CC(C(=O)O)N2CCN(CC(=O)[O-])CCN(CC(=O)[O-])CCN(CC(=O)[O-])CC2)cn1.[Gd+3]` (centres unmarked) [Example 16, gadolinium 2,2′,2″-{10-[1-carboxy-2-{6-[2-(2-ethoxyethoxy)ethoxy]pyridin-3-yl}ethyl]-1,4,7,10-tetraazacyclododecane-1,4,7-triyl}triacetate], the “Log P (butanol/buffer)” value is −1.81. The same measure for `CCOCCOCCOc1ccc(CCC[C@H](C(=O)O)N2CCN([C@@H](CO)C(=O)[O-])CCN([C@@H](CO)C(=O)[O-])CCN([C@@H](CO)C(=O)[O-])CC2)cc1.[Gd+3]` [Example 18, gadolinium (2S,2′S,2″S)-2,2′,2″-{10-[(1R)-1-carboxy-4-{4-[2-(2-ethoxyethoxy)ethoxy]phenyl}butyl]-1,4,7,10-tetraazacyclododecane-1,4,7-triyl}tris(3-hydroxypropanoate)]: −1.11; for `CCOCCOCCOc1ccc(CCC[C@H](C(=O)O)N2CCN([C@H](CO)C(=O)[O-])CCN([C@H](CO)C(=O)[O-])CCN([C@H](CO)C(=O)[O-])CC2)cc1.[Gd+3]` [Example 19, gadolinium (2R,2R,2″R)-2,2′,2″-{10-[(1R)-1-carboxy-4-{4-[2-(2-ethoxyethoxy)ethoxy]phenyl}butyl]-1,4,7,10-tetraazacyclododecane-1,4,7-triyl}tris(3-hydroxypropanoate)]: −0.95; for `CCOCCOCCOc1ccc(CCC[C@@H](C(=O)O)N2CCN([C@H](CO)C(=O)[O-])CCN([C@H](CO)C(=O)[O-])CCN([C@H](CO)C(=O)[O-])CC2)cc1.[Gd+3]` [Example 20, gadolinium (2R,2′R,2″R)-2,2′,2″-{10-[(1S)-1-carboxy-4-{4-[2-(2-ethoxyethoxy)ethoxy]phenyl}butyl]-1,4,7,10-tetraazacyclododecane-1,4,7-triyl}tris(3-hydroxypropanoate)]: −1.11. As to `CCOCCOCCOc1ccc(CC(C(=O)O)N2CCN(CC(=O)[O-])CCN(CC(=O)[O-])CCN(CC(=O)[O-])CC2)nc1.[Gd+3]` (centres unmarked) [Example 23, gadolinium 2,2′,2″-{10-[1-carboxy-2-{5-[2-(2-ethoxyethoxy)ethoxy]pyridin-2-yl}ethyl]-1,4,7,10-tetraazacyclododecane-1,4,7-triyl}triacetate], the “Log P (butanol/buffer)” value is −1.94.

On to `CCCOc1ccc(CCC(C(=O)O)N2CCN(CC(=O)[O-])CCN(CC(=O)[O-])CCN(CC(=O)[O-])CC2)cc1.[Gd+3]` (centres unmarked) [Example 24, gadolinium 2,2′,2″-{10-[1-carboxy-3-(4-propoxyphenyl)propyl]-1,4,7,10-tetraazacyclododecane-1,4,7-triyl}triacetate], for which the “Log P (butanol/buffer)” value was −0.71. Then `CCOCCOCCOc1ccc(CCC[C@@H](C(=O)O)N2CCN(CC(=O)[O-])CCN(CC(=O)[O-])CCN(CC(=O)[O-])CC2)cc1.[Gd+3]` [Example 26, gadolinium 2,2′,2″-{10-[(1S)-1-carboxy-4-{4-[2-(2-ethoxyethoxy)ethoxy]phenyl}butyl]-1,4,7,10-tetraazacyclododecane-1,4,7-triyl}triacetate], with −1.01; and `CCOc1ccc(CCCC[C@@H](C(=O)O)N2CCN(CC(=O)[O-])CCN(CC(=O)[O-])CCN(CC(=O)[O-])CC2)cc1.[Gd+3]` [Example 27, gadolinium 2,2′,2″-{10-[(1S)-1-carboxy-5-(4-ethoxyphenyl)pentyl]-1,4,7,10-tetraazacyclo-dodecane-1,4,7-triyl}triacetate], with −0.41.

For the compound `CCOc1ccc(CCCC(C(=O)O)N2CCN(CC(=O)[O-])CCN(CC(=O)[O-])CCN(CC(=O)[O-])CC2)cc1.[Gd+3]` (centres unmarked) [Example 28, gadolinium 2,2′,2″-{10-[1-carboxy-4-(4-ethoxyphenyl)butyl]-1,4,7,10-tetraazacyclododecane-1,4,7-triyl}triacetate], the “Log P (butanol/buffer)” value is recorded as −0.71. The same measure for `CCCC(C(=O)[O-])N1CCN(CC(=O)[O-])CCN(C(Cc2ccc(OCC)cc2)C(=O)O)CCN(CC(=O)[O-])CC1.[Gd+3]` (centres unmarked) [Example 29, gadolinium 2-{7-[1-carboxy-2-(4-ethoxyphenyl)ethyl]-4,10-bis(carboxylatomethyl)-1,4,7,10-tetraazacyclododecan-1-yl}pentanoate]: −0.53; for `CCCC(C(=O)[O-])N1CCN(CC(=O)[O-])CCN(C(Cc2ccc(OCC)cc2)C(=O)O)CCN(CC(=O)[O-])CC1.[Gd+3]` (centres unmarked) [Example 30, gadolinium 2-{7-[1-carboxy-2-(4-ethoxyphenyl)ethyl]-4,10-bis(carboxylatomethyl)-1,4,7,10-tetraazacyclododecan-1-yl}pentanoate]: −0.60. Then `CCCCOc1ccc(CCC[C@@H](C(=O)O)N2CCN(CC(=O)[O-])CCN(CC(=O)[O-])CCN(CC(=O)[O-])CC2)cc1.[Gd+3]` [Example 31, gadolinium 2,2′,2″-{10-[(1S)-4-(4-butoxyphenyl)-1-carboxybutyl]-1,4,7,10-tetraazacyclododecane-1,4,7-triyl}triacetate], with 0.20. The same measure for `CCOCCOc1ccc(CC(C(=O)O)N2CCN(CC(=O)[O-])CCN(CC(=O)[O-])CCN(CC(=O)[O-])CC2)cc1.[Gd+3]` (centres unmarked) [Example 32, gadolinium 2,2′,2″-(10-{1-carboxy-2-[4-(2-ethoxyethoxy)phenyl]ethyl}-1,4,7,10-tetraazacyclododecane-1,4,7-triyl)triacetate]: −1.53; for `CCCCOc1cccc(CCC[C@@H](C(=O)O)N2CCN([C@@H](CO)C(=O)[O-])CCN([C@@H](CO)C(=O)[O-])CCN([C@@H](CO)C(=O)[O-])CC2)c1.[Gd+3]` [Example 34, gadolinium (2S,2′S,2″S)-2,2′,2″-{10-[(1S)-4-(3-butoxyphenyl)-1-carboxybutyl]-1,4,7,10-tetraazacyclododecane-1,4,7-triyl}tris(3-hydroxypropanoate)]: 0.12. For the compound `CCOCCOCCOc1ccc(CCC[C@@H](C(=O)O)N2CCN([C@@H](CO)C(=O)[O-])CCN([C@H](CO)C(=O)[O-])CCN([C@@H](CO)C(=O)[O-])CC2)cc1.[Gd+3]` [Example 35, gadolinium (2S,2′S)-2,2′-{4-[(1S)-1-carboxy-4-{4-[2-(2-ethoxyethoxy)ethoxy]phenyl}butyl]-10-[(1R)-1-carboxylato-2-hydroxyethyl]-1,4,7,10-tetraazacyclododecane-1,7-diyl}bis(3-hydroxypropanoate)], the “Log P (butanol/buffer)” value was −1.02. Take `CCOCCOCCOc1ccc(CC(C(=O)O)N2CCN(C(CCO)C(=O)[O-])CCN(C(CCO)C(=O)[O-])CCN(C(CCO)C(=O)[O-])CC2)cc1.[Gd+3]` (centres unmarked) [Example 37, gadolinium-2,2′-{4-[1-carboxy-2-{4-[2-(2-ethoxyethoxy)ethoxy]phenyl}ethyl]-10-[1-carboxylato-3-hydroxypropyl]-1,4,7,10-tetraazacyclododecane-1,7-diyl}bis(4-hydroxybutanoate)]: the “Log P (butanol/buffer)” value is on record as −1.16. Then `CCOCCOc1ccc(CC(C(=O)O)N2CCN(CC(=O)[O-])CCN(C(COC)C(=O)[O-])CCN(CC(=O)[O-])CC2)cc1.[Gd+3]` (centres unmarked) [Example 38, gadolinium 2-[7-{1-carboxy-2-[4-(2-ethoxyethoxy)phenyl]ethyl}-4,10-bis(carboxylatomethyl)-1,4,7,10-tetraazacyclododecan-1-yl]-3-methoxypropanoate], with −1.41. Then `CCOCCOCCOc1cc(CC(C(=O)O)N2CCN(CC(=O)[O-])CCN(CC(=O)[O-])CCN(CC(=O)[O-])CC2)cc(OCCOCCOCC)c1.[Gd+3]` (centres unmarked) [Example 39, gadolinium 2,2′,2″-{10-[2-{3,5-bis[2-(2-ethoxyethoxy)ethoxy]phenyl}-1-carboxyethyl]-1,4,7,10-tetraazacyclododecane-1,4,7-triyl}triacetate], with −1.32; and `CCOCCOCCOCCOc1ccc(C[C@@H](C(=O)O)N2CCN(CC(=O)[O-])CCN(CC(=O)[O-])CCN(CC(=O)[O-])CC2)c(OCCOCCOCCOCC)c1.[Gd+3]` [Example 40, gadolinium 2,2′,2″-{10-[(1S)-2-(2,4-bis{2-[2-(2-ethoxyethoxy)ethoxy]ethoxy}phenyl)-1-carboxyethyl]-1,4,7,10-tetraazacyclododecane-1,4,7-triyl}triacetate], with −1.43. Then `CCOCCOCCOc1ccc(CC(C(=O)O)N2CCN(CC(=O)[O-])CCN(C(CO)C(=O)[O-])CCN(CC(=O)[O-])CC2)cc1.[Gd+3]` (centres unmarked) [Example 41, gadolinium-2-{7-[1-carboxy-2-{4-[2-(2-ethoxyethoxy)ethoxy]phenyl}ethyl]-4,10-bis(carboxylatomethyl)-1,4,7,10-tetraazacyclododecan-1-yl}-3-hydroxypropanoate], with −1.61; and `CCOCCOCCOCCOc1ccc(CC(C(=O)O)N2CCN(CC(=O)[O-])CCN(C(CO)C(=O)[O-])CCN(CC(=O)[O-])CC2)cc1.[Gd+3]` (centres unmarked) [Example 42, gadolinium-2-{7-[1-carboxy-2-(4-{2-[2-(2-ethoxyethoxy)ethoxy]ethoxy}phenyl)ethyl]-4,10-bis(carboxylatomethyl)-1,4,7,10-tetraazacyclododecan-1-yl}-3-hydroxypropanoate], with −1.60; and `CCOCCOCCOc1ccc(CC(C(=O)[O-])N2CCN(CC(=O)[O-])CCN(C(CC)C(=O)O)CCN(CC(=O)[O-])CC2)cc1.[Gd+3]` (centres unmarked) [Example 43, gadolinium-2-{4,10-bis(carboxylatomethyl)-7-[1-carboxypropyl]-1,4,7,10-tetraazacyclododecan-1-yl}-3-{4-[2-(2-ethoxyethoxy)ethoxy]phenyl}propanoate], with −1.19. In the case of `COCC(C(=O)O)N1CCN(CC(=O)[O-])CCN(C(Cc2ccc(OCC(F)(F)C(F)F)cc2)C(=O)[O-])CCN(CC(=O)[O-])CC1.[Gd+3]` (centres unmarked) [Example 45, gadolinium-2-{4,10-bis(carboxylatomethyl)-7-[1-carboxy-2-methoxyethyl]-1,4,7,10-tetraazacyclododecan-1-yl}-3-[4-(2,2,3,3-tetrafluoropropoxy)phenyl]propanoate], the “Log P (butanol/buffer)” value is recorded as −0.36.
